Assay: mean ionic activity coefficient (dimensionless); mn = molality of the nth substance listed, in mol/kg
Conditions: 298.2 K, 101 kPa, Liquid, potentionmetric method

[Cl-].[Na+] [sodium chloride] + O
Conditions | mean ionic activity coefficient
m1 = 0.001 | 0.965
m1 = 0.0101 | 0.902
m1 = 0.0502 | 0.82
m1 = 0.0993 | 0.777
m1 = 0.2495 | 0.718
m1 = 0.4993 | 0.68
m1 = 0.7496 | 0.663
m1 = 0.9996 | 0.655
m1 = 1.249 | 0.654
m1 = 1.5 | 0.656
m1 = 1.749 | 0.66
m1 = 1.999 | 0.667
m1 = 2.499 | 0.687
m1 = 3 | 0.713

Source: the NIST ThermoML archive (doi:10.1016/j.fluid.2014.07.002)
